# Experimental data as given in US20250009819A1, “NOVEL PROBIOTICS AND USE THEREOF” (PBLBIOLAB CO., LTD., priority 2021, published 2025).
# Tests used:
# [1] = Antioxidant activity (DPPH, in vitro); assay type: biochemical; details: DPPH 0.2 mM; lactic acid bacteria suspension 1×10^8 CFU/ml; 37° C. 20 min
# Summary of the method: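 Lactic acid bacteria suspension (1×10^8 CFU/ml) or vitamin C (1 g/ml) was mixed with 0.2 mM ethanolic DPPH and incubated 20 min at 37° C. After centrifugation, supernatant absorbance at 517 nm gave the antioxidant activity.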
# gut microbiota = assay: LPS production in gut microbiota (ELISA); assay type: cell-based; details: human feces culture; lactic acid bacteria 1×10^6 CFU/mL; anaerobic 24 hr
# Method: Fresh human feces were suspended in anaerobic medium (GAM, Nissui Pharmaceutical Co., Ltd., Japan) and allowed to stand for 10 min. The supernatant was diluted with 10,000-fold anaerobic medium, 0.05 mL of the dilution was transplanted into 5 mL of freshly made anaerobic medium, and lactic acid bacteria (1×10^6 CFU/mL) were implanted and incubated anaerobically for 24 hr.
# [2] = test system: animals with intestinal and brain diseases induced by TNBS; assay: Animals with intestinal and brain diseases induced by TNBS: improvement effect in colon; assay type: in vivo, C57BL/6 male mice; details: TNBS-treated mice, 1×10^9 CFU/mouse or sulfasalazine 50 mg/kg orally once a day for 5 days
# Method: Then, the supernatant was obtained by centrifugation for 10 minutes at 4° C. and 10,000 g. A volume of 50 μl of the supernatant was added to 0.95 mk of reaction solution (containing 1.6 mM tetramethyl benzidine and 0.1 mM H2O2), reacted at 37° C., and absorbance was monitored over time at 650 nm. […] Indicators of this supernatant were measured using an ELISA kit (Ebioscience). C57BL/6 male mice (5 weeks old, 19-21 g) were divided (6 mice in each group) and acclimatized to the laboratory for 1 week. […] Meanwhile, the normal group was orally administered with 0.1 ml of physiological saline. From the next day, the mice were orally administered once a day for 5 days with lactic acid bacteria as a test sample suspended in physiological saline solution at a concentration of 1×10^9 CFU per mouse (NK210 alone (LR): 1×10^9 CFU/mouse, NK219 alone (BL): 1×10^9 CFU/mouse, NK209 alone (LL): 1×10^9 CFU/mouse, combined (MX, 210+219): NK210, 8×10^8 CFU/mouse and NK219, 2×10^8 CFU/mouse, combined (MX, 209+219) NK209, 8×10^8 CFU/mouse and NK219, 2×10^8 CFU/mouse, LR+BL+LL: NK210, 4×10^8 CFU/mouse, NK219, 2×10^8 CFU/mouse, and NK209, 4×10^8 CFU/mouse, heat treated (H—), respectively: 1×10^9 CFU/mouse). […] The day following the conclusion of sample administration, the experimental animals were sacrificed, and samples from the brain hippocampus, colon, and spleen were collected. In the Hippocampus, inflammatory indicators, such as TNF-α and IL-10, were measured using ELISA. In the colon, intestinal length and inflammatory indicators, such as TNF-α and IL-10, were measured. In the spleen, Th1 cells and Treg cells were measured by FACS (Fluorescence-Activated Cell Sorting).
# TNF-α = TNF-α expression in LPS-treated macrophages (ELISA); assay type: cell-based, C57BL/6 mice; details: macrophages treated with lactic acid bacteria and LPS for 24 hours
# Summary of the method: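 Peritoneal macrophages were elicited in male C57BL/6 mice (6 weeks) by i.p. 4% thioglycolate and harvested 96 h later. Cells at 0.5×10^6/well were treated with lactic acid bacteria plus LPS for 24 h. Cytokines in the supernatant were quantified by ELISA.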
# BDNF = BDNF expression in SH-SY5Y cells; assay type: cell-based; details: LPS 200 ng/ml; lactic acid bacteria 1×10^4 CFU/ml; 24 h
# Method: SH-SY5Y cells obtained from the Korean Cell Line Bank were cultured in DMEM medium supplemented with 10% FBS and 1% antibiotics, and dispensed at 2×10^6 cells per well in a 12-well plate. Then, LPS (200 ng/ml) was added to each well along with lactic acid bacteria (1×10^4 CFU/ml) and incubated for 24 h. The cells and supernatants were collected, sonicated and centrifuged, and the amount of BDNF in the supernatant was measured by ELISA kit.
Substance,Antioxidant activity [1],Gut microbiota Inhibition of LPS production (gut microbiota),Colon IFN-γ [2] [pg/mg],Colon IL-10 [2] [pg/mg],Colon MPO [2] [μUnit/mg],Colon TNF-α [2] [pg/mg],Colon length (cm) [2] [cm],Macrophage Inhibition of TNF-α expression (TNF-α),SHSY5Y cell Induction of BDNF expression (BDNF)
Bifidobacterium longum NK219,+++ (very strongly (+++; >90%)),+++ (very strongly (+++; >90%)),7.79,17.20,16.24,20.57,4.82,+++ (very strongly (+++; >90%)),+++ (very strongly (+++; >90%))
Lactobacillus rhamnosus NK210,+++ (very strongly (+++; >90%)),+++ (very strongly (+++; >90%)),8.42,15.31,18.43,23.84,4.63,++ (strongly (++; >60-90%)),++ (strongly (++; >60-90%))
Lactococcus lactis NK209,+ (weakly (+; >20-60%)),+ (weakly (+; >20-60%)),7.89,17.10,15.65,20.12,4.89,+ (weakly (+; >20-60%)),+ (weakly (+; >20-60%))
